Results as given in patent US7880007B2, “Bicyclic substituted phenyl piperidine modulators of muscarinic receptors” (Vertex Pharmaceuticals Incorporated, priority 2004, dated 2011).

Assays:
Format in all cases: cell-based
[1] = biological target: T1, M3 muscarinic receptor (Homo sapiens, UniProt P20309); experiment: Functional mobilization of intracellular calcium (FLIPR), M3-CHO cells; settings: for Emax: 100% efficacy = maximum response obtained with the Carbachol control; for M3 Activity: M3-CHO cells, calcium mobilization (FLIPR)
T1 construct: expressed in transfected cells; host or cells: CHO (M3-CHO)
Procedure, shortened: (§1)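 FLIPR fluorescence (ex 488, em 540 nm) recorded 60 sec after compound addition to dye-loaded CHO cells. Agonist mode: compound alone. Antagonist mode: 15 min compound pre-incubation, then carbachol at EC80, or co-application. Efficacy expressed as % of maximal carbachol response.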

[2] = biological target: T2, M4 muscarinic receptor (Homo sapiens, UniProt P08173); experiment: Functional mobilization of intracellular calcium (FLIPR), M4-CHO cells; settings: for Emax: 100% efficacy = maximum response obtained with the Carbachol control; for M4 Activity: M4-CHO cells, calcium mobilization (FLIPR)
T2 construct: expressed in transfected cells; host or cells: CHO (M4-CHO)
T2 sequence (P08173 1-479): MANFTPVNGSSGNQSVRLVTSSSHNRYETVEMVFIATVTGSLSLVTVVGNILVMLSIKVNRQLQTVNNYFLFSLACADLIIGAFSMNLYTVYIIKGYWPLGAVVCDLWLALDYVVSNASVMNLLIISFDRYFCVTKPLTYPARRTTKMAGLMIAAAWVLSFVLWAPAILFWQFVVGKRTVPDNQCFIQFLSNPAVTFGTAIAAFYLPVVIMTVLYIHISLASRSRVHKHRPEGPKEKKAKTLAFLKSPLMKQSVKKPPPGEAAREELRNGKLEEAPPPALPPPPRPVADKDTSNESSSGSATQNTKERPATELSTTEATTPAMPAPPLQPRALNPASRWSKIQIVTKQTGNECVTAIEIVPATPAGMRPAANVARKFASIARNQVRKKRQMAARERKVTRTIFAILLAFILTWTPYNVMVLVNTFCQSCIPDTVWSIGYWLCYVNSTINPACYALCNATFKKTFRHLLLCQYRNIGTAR
Procedure, shortened: as §1

[3] = biological target: T3, M2 muscarinic receptor (Homo sapiens, UniProt P08172); experiment: Functional mobilization of intracellular calcium (FLIPR), M2-CHO cells; settings: for Emax: 100% efficacy = maximum response obtained with the Carbachol control; for M2 Activity: M2-CHO cells, calcium mobilization (FLIPR)
T3 construct: expressed in transfected cells; host or cells: CHO (M2-CHO)
T3 sequence (P08172 1-466): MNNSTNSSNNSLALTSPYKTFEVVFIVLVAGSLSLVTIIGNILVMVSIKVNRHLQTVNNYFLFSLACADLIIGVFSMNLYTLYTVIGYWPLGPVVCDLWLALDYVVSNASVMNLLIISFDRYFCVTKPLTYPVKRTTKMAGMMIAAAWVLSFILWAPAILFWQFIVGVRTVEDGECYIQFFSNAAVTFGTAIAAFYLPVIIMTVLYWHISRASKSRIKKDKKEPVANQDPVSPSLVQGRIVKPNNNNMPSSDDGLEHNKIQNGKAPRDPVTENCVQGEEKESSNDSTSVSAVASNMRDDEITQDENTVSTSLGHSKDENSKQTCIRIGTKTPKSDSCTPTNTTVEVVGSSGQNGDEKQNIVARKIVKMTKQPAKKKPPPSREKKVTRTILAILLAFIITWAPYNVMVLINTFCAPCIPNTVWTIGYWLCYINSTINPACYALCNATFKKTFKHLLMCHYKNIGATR
Procedure, shortened: as §1

[4] = biological target: T4, M1 muscarinic receptor (Homo sapiens, UniProt P11229); experiment: Functional mobilization of intracellular calcium (FLIPR), M1-CHO cells; settings: for Emax: 100% efficacy = maximum response obtained with the Carbachol control; for M1 Activity: M1-CHO cells, calcium mobilization (FLIPR)
T4 construct: expressed in transfected cells; host or cells: CHO (M1-CHO)
T4 sequence (P11229 1-460): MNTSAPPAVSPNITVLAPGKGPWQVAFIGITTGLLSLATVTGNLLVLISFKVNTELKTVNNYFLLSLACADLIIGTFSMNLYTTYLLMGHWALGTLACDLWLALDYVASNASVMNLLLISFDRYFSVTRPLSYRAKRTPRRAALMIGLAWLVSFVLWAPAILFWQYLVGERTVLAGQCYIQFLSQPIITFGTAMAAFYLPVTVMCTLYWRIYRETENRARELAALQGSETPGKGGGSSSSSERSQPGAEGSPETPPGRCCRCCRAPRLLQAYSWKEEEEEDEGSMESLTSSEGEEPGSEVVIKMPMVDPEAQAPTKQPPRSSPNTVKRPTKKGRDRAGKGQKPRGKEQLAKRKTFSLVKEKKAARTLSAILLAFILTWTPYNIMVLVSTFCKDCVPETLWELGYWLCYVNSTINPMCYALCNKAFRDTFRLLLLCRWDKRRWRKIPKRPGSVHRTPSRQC
Procedure, shortened: as §1

T1 sequence (P20309 whole entry): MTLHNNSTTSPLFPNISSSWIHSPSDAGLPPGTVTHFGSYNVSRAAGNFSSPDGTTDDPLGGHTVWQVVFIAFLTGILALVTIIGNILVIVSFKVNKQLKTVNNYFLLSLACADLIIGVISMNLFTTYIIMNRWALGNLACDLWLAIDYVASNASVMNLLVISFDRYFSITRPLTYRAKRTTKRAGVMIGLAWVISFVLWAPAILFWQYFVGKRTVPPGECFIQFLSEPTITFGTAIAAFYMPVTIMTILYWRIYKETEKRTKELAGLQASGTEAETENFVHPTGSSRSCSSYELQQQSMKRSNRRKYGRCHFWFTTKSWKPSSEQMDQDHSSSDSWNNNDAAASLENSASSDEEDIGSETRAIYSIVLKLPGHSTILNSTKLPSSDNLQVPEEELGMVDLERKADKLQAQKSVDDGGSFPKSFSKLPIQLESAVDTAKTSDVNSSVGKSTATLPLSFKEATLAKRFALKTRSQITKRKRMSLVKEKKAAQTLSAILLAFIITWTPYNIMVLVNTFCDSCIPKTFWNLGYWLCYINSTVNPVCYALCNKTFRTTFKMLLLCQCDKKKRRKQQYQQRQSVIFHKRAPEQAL

SMILES | Emax [1] [%] | M3 Activity [1] | Emax [2] [%] | M4 Activity [2] | Emax [3] [%] | M2 Activity [3] | Emax [4] [%] | M1 Activity [4]
COc1ccc(F)cc1C1(F)CCN(C2CCC3CCC2C3)CC1 (stereo not drawn) [Compound 242] | < 25 | + (activity was measured to be greater than 5.0 μM) | 25 to 100 | +++ (activity was measured to be less than 1.0 μM) | 25 to 100 | + (activity was measured to be greater than 5.0 μM) | 25 to 100 | ++ (activity was measured to be from 1.0 μM to 5.0 μM)
CCOC(=O)N1CCC(CN2CCC(c3cc(-c4ccc(C(=O)NC)cc4)ccc3OC)CC2)CC1 [Compound 243] | < 25 | + (activity was measured to be greater than 5.0 μM) | 25 to 100 | +++ (activity was measured to be less than 1.0 μM) | < 25 | + (activity was measured to be greater than 5.0 μM) | 25 to 100 | +++ (activity was measured to be less than 1.0 μM)
COc1ccc(C)cc1C1CCN(C2C[C@H]3CC[C@H](C2)C3)CC1 (stereo partly drawn) [Compound 246] | < 25 | + (activity was measured to be greater than 5.0 μM) | 25 to 100 | +++ (activity was measured to be less than 1.0 μM) | 25 to 100 | + (activity was measured to be greater than 5.0 μM) | 25 to 100 | ++ (activity was measured to be from 1.0 μM to 5.0 μM)
COc1ccc(F)cc1C1(OC)CCN(C2CC3CCC(C3)C2)CC1 (stereo not drawn) [Compound 247] | < 25 | + (activity was measured to be greater than 5.0 μM) | 25 to 100 | +++ (activity was measured to be less than 1.0 μM) | < 25 | + (activity was measured to be greater than 5.0 μM) | < 25 | + (activity was measured to be greater than 5.0 μM)
COc1ccc(Cl)cc1C1CCN(C2CC[S+]([O-])CC2)CC1 (stereo not drawn) [Compound 248] | < 25 | + (activity was measured to be greater than 5.0 μM) | 25 to 100 | + (activity was measured to be greater than 5.0 μM) | < 25 | + (activity was measured to be greater than 5.0 μM) | < 25 | + (activity was measured to be greater than 5.0 μM)
COc1ccc(Cl)cc1C1CCN(C2CCOCC2)CC1 [Compound 249] | < 25 | + (activity was measured to be greater than 5.0 μM) | 25 to 100 | +++ (activity was measured to be less than 1.0 μM) | 25 to 100 | + (activity was measured to be greater than 5.0 μM) | 25 to 100 | + (activity was measured to be greater than 5.0 μM)
COc1ccc(C#N)cc1C1CCN([C@H]2C[C@H]3CC[C@H]2C3)CC1 [Compound 250] | < 25 | + (activity was measured to be greater than 5.0 μM) | 25 to 100 | +++ (activity was measured to be less than 1.0 μM) | < 25 | + (activity was measured to be greater than 5.0 μM) | 25 to 100 | ++ (activity was measured to be from 1.0 μM to 5.0 μM)
COC(=O)c1ccc(-c2ccccc2C2CCN([C@H]3C[C@H]4CC[C@H]3C4)CC2)cc1 [Compound 251] | < 25 | + (activity was measured to be greater than 5.0 μM) | 25 to 100 | +++ (activity was measured to be less than 1.0 μM) | 25 to 100 | + (activity was measured to be greater than 5.0 μM) | 25 to 100 | + (activity was measured to be greater than 5.0 μM)
Cc1ccccc1C1(O)CCN(C2CC3CCC2C3)CC1 (stereo not drawn) [Compound 252] |  | + (activity was measured to be greater than 5.0 μM) | < 25 | + (activity was measured to be greater than 5.0 μM) | < 25 | + (activity was measured to be greater than 5.0 μM) | < 25 | + (activity was measured to be greater than 5.0 μM)
CCOC(=O)N1CCC(CN2CCC(F)(c3cc(F)ccc3OC)CC2)CC1 [Compound 253] | < 25 | + (activity was measured to be greater than 5.0 μM) | 25 to 100 | +++ (activity was measured to be less than 1.0 μM) | < 25 | ++ (activity was measured to be from 1.0 μM to 5.0 μM) | 25 to 100 | +++ (activity was measured to be less than 1.0 μM)
CCOC(=O)N1C2CCC1CC(N1CCC(c3cc(-c4ccc(CC#N)cc4)ccc3OC)CC1)C2 (stereo not drawn) [Compound 254] | < 25 | + (activity was measured to be greater than 5.0 μM) | 25 to 100 | ++ (activity was measured to be from 1.0 μM to 5.0 μM) | < 25 | + (activity was measured to be greater than 5.0 μM) | 25 to 100 | + (activity was measured to be greater than 5.0 μM)
COc1ccccc1C1CCN(C2CCC3CCCCC3C2)CC1 (stereo not drawn) [Compound 255] | 25 to 100 | + (activity was measured to be greater than 5.0 μM) | 25 to 100 | ++ (activity was measured to be from 1.0 μM to 5.0 μM) | < 25 | + (activity was measured to be greater than 5.0 μM) | 25 to 100 | + (activity was measured to be greater than 5.0 μM)
COc1ccc(Cl)cc1C1(F)CCN(CC2CCCCC2)CC1 [Compound 257] | < 25 | + (activity was measured to be greater than 5.0 μM) | 25 to 100 | + (activity was measured to be greater than 5.0 μM) | < 25 | + (activity was measured to be greater than 5.0 μM) | < 25 | + (activity was measured to be greater than 5.0 μM)
CCS(=O)(=O)c1ccc(-c2ccc(OC)c(C3CCN([C@H]4C[C@H]5CC[C@H]4C5)CC3)c2)cc1 [Compound 258] | < 25 | + (activity was measured to be greater than 5.0 μM) | 25 to 100 | ++ (activity was measured to be from 1.0 μM to 5.0 μM) | < 25 | + (activity was measured to be greater than 5.0 μM) | 25 to 100 | + (activity was measured to be greater than 5.0 μM)
Fc1ccccc1C1CCN(C2C[C@H]3CC[C@H]2C3)CC1 (stereo partly drawn) [Compound 259] | < 25 |  | 25 to 100 |  | < 25 |  | 25 to 100 | 
CCc1ccc(OC)c(C2CCN([C@@H]3C[C@H]4CC[C@H]3C4)CC2)c1 [Compound 260] | < 25 | + (activity was measured to be greater than 5.0 μM) | 25 to 100 | +++ (activity was measured to be less than 1.0 μM) | < 25 | + (activity was measured to be greater than 5.0 μM) | 25 to 100 | +++ (activity was measured to be less than 1.0 μM)
